From paper PMC9649909, “Wnt-pathway inhibitors with selective activity against triple-negative breast cancer: From thienopyrimidine to quinazoline inhibitors” (Frontiers in Pharmacology, 2022)
Like-named read-outs stand apart in the source and are kept apart here.

Legend:
[1] = system: β-catenin-dependent Wnt-pathway; assay: TopFlash luciferase reporter assay, CHIR99021-stimulated, HCC1395; type: cell-based; conditions: for TopFlash activity in words: CHIR99021; for Emax: read-out: HCC1395 TopFlash Efficacy
Description: Both stimulations abolish formation of the destruction complex, a multiprotein complex consisting of Axin, adenomatous polyposis coli (APC), glycogen synthase kinase three beta (GSK3β), and casein kinase one alpha (CK1α). Upon inactivation of the complex, β-catenin accumulates in the cytoplasm and translocates into the nucleus where it interacts with transcription factors. These downstream events are quantified by a Luciferase transcription-based readout assay (TopFlash assay).

[2] = system: HCC1395 cells; assay: Cytotoxicity by Renilla luciferase under CMV promoter
Method: (§1) The simplicity of the scaffold combined with synthetic accessibility allows building a library of compounds and performing structure activity relationship (SAR) studies of the three main parts of the molecule: the top part, the linker and the core (Figure 2).
(§2) The synthesized compounds were used to explore SAR of three defined areas of investigation (Figure 2). All compounds were tested in the HCC1395 TNBC cell line using the GSK3β inhibitor to induce β-catenin signaling since 4a acted downstream of GSK3β (Figure 2). Both inhibition of β-catenin signaling measured by the TopFlash reporter and cytotoxicity measured by the Renilla reporter were assessed.
(§3) The Wnt3a or CHIR99021-stimulated luciferase activity in HCC1395 TNBC cell line stably transfected with the TopFlash reporter was analyzed essentially as described for the BT-20 TNBC cell line ([Shaw et al., 2019b]; [Koval et al., 2021]). Reporter cells were seeded at 10,000 cells/well in a white opaque 384-well plate in the final volume of 20 μl of DMEM medium supplemented with 10% FCS. The cells were maintained incubated at 37°C, 5% CO2 overnight for attachment. Subsequently, they were transfected by a plasmid encoding constitutively expressed Renilla luciferase under the CMV promoter overall as described in the manufacturer’s protocol using 12 μg/ml of DNA and 40 μl/ml XtremeGENE nine reagent. The next day, the medium in each well was replaced with a 10 μl of fresh medium containing compound of interest, and, after 1 h of preincubation with the compounds, additional 10 μl of medium supplemented with Wnt3a [purified as described ([Willert et al., 2003]; [Koval and Katanaev, 2011])] or CHIR99021 were added creating respective final concentrations of 2.5 μg/ml or 5 μM of each. In case of other signal transduction reporters, no additional stimulation was performed. Compound dilutions were prepared by serial dilution in DMSO and diluted with the amount of medium necessary to obtain their final concentrations indicated on the figures and tables and maintain concentration of DMSO of 0.5% in all assay points. After overnight incubation, the supernatant in each well was removed, and the luciferase activity was measured as described ([Dyer et al., 2000]; [Huber et al., 2021]; [Pellissier et al., 2021]). The culture medium was completely removed from all wells of the plate. Finally, the luciferase activity of the firefly and Renilla luciferases was detected sequentially in individual wells of a 384-well plate through injection of corresponding measurement solutions and immediate reading (400 ms integration time) in Infinite M Plex multifunctional plate reader with injection module.

[3] = system: BT-20 TNBC cell line; assay: MTT survival assay BT-20; type: cell-based
Method: (§4) Indicated TNBC cell lines were detached and resuspended at 120,000 cells/ml and added into each well of a transparent 384-well plate in the final volume of 20 µl/well. The cells were maintained in DMEM containing 10% FBS at 37°C, 5% CO2 overnight. Next day, the medium in each well was replaced by 40 μl of the fresh one containing the indicated concentrations of compounds. In case of drug combination experiments, each compound dilution was delivered in corresponding well in 20 μl of medium. […] After incubation for 3–4 days, depending on the cell line, the medium in each well was replaced by 25 μl of 0.5 mg/ml Thiazolyl blue solution in 1xPBS following by incubation for 3 h at 37°C. Then the solution was removed and 25 μl DMSO was added into each well. Absorbance at 510 nm was measured in a Tecan Infinite M200 PRO plate reader.

[4] = system: HCC1395 TNBC cell line; assay: MTT survival assay HCC1395; type: cell-based
Method: as §4

[5] = system: MDA-MB-231 TNBC cell line; assay: MTT survival assay MDA-MB-231; type: cell-based
Method: as §4

[6] = system: HCC1806 TNBC cell line; assay: MTT survival assay HCC1806; type: cell-based
Method: as §4

[7] = system: MDA-MB-468 TNBC cell line; assay: MTT survival assay MDA-MB-468; type: cell-based; conditions: Table S2
Method: as §4

[8] = system: non-cancerous breast epithelial cell line MCF10a; assay: MTT survival assay MCF10a; type: cell-based; conditions: for selectivity over the control cells (difference in IC50, MCF10a vs HCC1395): MTT IC50 ratio MCF10a / HCC1395
Method: as §4

[9] = in vitro; conditions: human, HCC1395 Cytotoxicity IC50
Method: as §1, §2, §3

[10] = Homo sapiens, HCC1395, HCC1395, stimulation with CHIR99021 (GSK3β inhibitor)
[11] = Homo sapiens, HCC1395, HCC1395, stimulation with CHIR99021 (GSK3β inhibitor), read-out: HCC1395 TopFlash IC50
[12] = Homo sapiens, BT-20, Table S2, read-out: MTT BT-20 IC50
[13] = Homo sapiens, HCC1395, Table S2, read-out: MTT HCC-1395 IC50
[14] = Homo sapiens, MDA-MB-231, Figure 3B heatmap, read-out: IC50, μM (MDA-MB-231)
[15] = Homo sapiens, MDA-MB-231, Table S2, read-out: MTT MDA-MB-231 IC50
[16] = Homo sapiens, HCC1806, Table S2, read-out: MTT HCC1806 IC50
[17] = Homo sapiens, MCF-10A, Table S2, read-out: MTT MCF10 IC50
[18] = Homo sapiens, MCF-10A, Figure 3B heatmap, read-out: IC50, μM (MCF10)

| Compound | IC50 [1, 11] [µM] | MTT MDA-MB-231 plateau ([5]; Table S2) | Emax [1, 10] [%] | IC50 [9] [µM] | GSK HCC1395 Renilla Comments [2] | IC50 [3, 12] [µM] | IC50 [4, 13] [µM] | IC50 [5, 14] [µM] | IC50 [5, 15] [µM] | IC50 [6, 16] [µM] | IC50 ([7]; Homo sapiens, MDA-MB-468) [µM] | IC50 [8, 17] [µM] | MTT MCF10 Comments ([8]; Table S2) | also measured |
| --- | --- | --- | --- | --- | --- | --- | --- | --- | --- | --- | --- | --- | --- | --- |
| 2-chloro-N-(2-methoxybenzyl)quinazolin-4-amine [Compound 8a] |  | 53.88 |  |  |  |  |  |  |  |  |  |  |  | TopFlash activity in words ([1]; HCC1395): no longer active; GSK HCC1395 plateau ([1]; Table S2): 100; IC50 ([1]; Table S2, TopFlash, GSK3β inhibitor stimulation, read-out: GSK HCC1395 IC50): 42.8 µM; IC50 ([2]; read-out: HCC1395 Cytotoxicity IC50, Renilla luciferase, HCC1395): > 100 µM; MTT BT-20 plateau ([3]; Table S2): 100; IC50 ([3]; Table S2, read-out: MTT BT-20 IC50): 2.96 µM; MTT HCC1395 plateau ([4]; Table S2): 100; IC50 ([4]; Table S2, read-out: MTT HCC-1395 IC50): 7.83 µM; IC50 ([5]; Table S2, read-out: MTT MDA-MB-231 IC50): 2.65 µM; MTT HCC1806 plateau ([6]; Table S2): 100; IC50 ([6]; Table S2, read-out: MTT HCC1806 IC50): 22.7 µM; IC50 [7]: 3.19 µM; MTT MDA-MB-468 plateau [7]: 69.23; selectivity over the control cells (difference in IC50, MCF10a vs HCC1395) [8]: less than 3 fold; MTT MCF10 plateau ([8]; Table S2): 100; IC50 ([8]; Table S2, read-out: MTT MCF10 IC50): 10.5 µM |
| COc1cccc(CNc2ncnc3sccc23)c1 [Compound 4c, N-(3-methoxybenzyl)thieno[2,3-d]pyrimidin-4-amine] | 4.96 ± 1.65 | 100 | 58.6 ± 22.8 | > 50 | Non-toxic | 2.89 | 1.08 | > 10 | 9.37 | > 50 | 1.61 | > 50 | Inactive | IC50 ([2]; human): > 100 µM; MTT HCC1806 Comments ([6]; Table S2): Inactive |
| Fc1ccc(CNc2ncnc3sccc23)cc1 [Compound 4g, N-(4-fluorobenzyl)thieno[2,3-d]pyrimidin-4-amine] | 4.15 ± 0.91 | 100 | 78.6 ± 29.8 | > 50 | Non-toxic | 1.63 | 1.96 |  | 25.4 | 2.37 | 1.46 | > 10 | Inactive | fold improvement in the activity compared to 4a ([1]; TopFlash IC50 vs 4a): 2 fold |
| Clc1cccc(CNc2ncnc3sccc23)c1 [Compound 4i, N-(3-chlorobenzyl)thieno[2,3-d]pyrimidin-4-amine] | 8.4 ± 5.01 | 100 | 56.2 ± 4 | > 50 | Non-toxic | 5.24 | 1.74 |  | 18.7 | 2.2 | 1.44 | > 10 | Inactive |  |

Continued, in another order:

| IC50 [1, 11] [µM] | Compound | MTT MDA-MB-231 plateau ([5]; Table S2) | Emax [1, 10] [%] | IC50 [9] [µM] | GSK HCC1395 Renilla Comments [2] | IC50 [3, 12] [µM] | IC50 [4, 13] [µM] | IC50 [5, 14] [µM] | IC50 [5, 15] [µM] | IC50 [6, 16] [µM] | IC50 ([7]; Homo sapiens, MDA-MB-468) [µM] | IC50 [8, 17] [µM] | MTT MCF10 Comments ([8]; Table S2) | also measured |
| --- | --- | --- | --- | --- | --- | --- | --- | --- | --- | --- | --- | --- | --- | --- |
| 2.64 ± 1.22 | c1ccc(CCNc2ncnc3sccc23)cc1 [Compound 5g, N-phenethylthieno[2,3-d]pyrimidin-4-amine] |  | 89 | > 50 | Non-toxic | > 50 | 4.59 | > 10 | > 50 | > 50 | > 50 | > 50 |  | IC50 [8, 18]: > 10 µM |
| > 50 | c1ccc(CCCNc2ncnc3sccc23)cc1 [Compound 5h, N-(3-phenylpropyl)thieno[2,3-d]pyrimidin-4-amine] |  |  | > 50 | Non-toxic | 36.8 |  | > 10 | > 50 | 37.1 | > 50 | > 50 |  | TopFlash activity in words ([1]; HCC1395): inactive; IC50 ([3]; Homo sapiens, BT-20, Figure 3B heatmap, no activity up to maximal tested concentration, read-out: IC50, μM (BT20)): > 50 µM; IC50 ([4]; Homo sapiens, HCC1395, MTT, Figure 3B heatmap and text, read-out: IC50, μM (HCC1395)): > 50 µM; IC50 ([6]; Homo sapiens, HCC1806, Figure 3B heatmap, read-out: IC50, μM (HCC1806)): > 10 µM; IC50 [8, 18]: > 10 µM; selectivity over the control cells (difference in IC50, MCF10a vs HCC1395) [8]: less than 3 fold |
| 42.9 ± 50.2 | Clc1ccccc1CCNc1ncnc2sccc12 [Compound 5k, N-(2-chlorophenethyl)thieno[2,3-d]pyrimidin-4-amine] |  | 93.2 ± 10.6 | > 50 | Non-toxic | > 50 | 4.24 | > 10 | > 50 | > 50 | > 50 | 43.6 |  |  |
| 1.79 | Clc1cccc(CCNc2ncnc3sccc23)c1 [Compound 5l, N-(3-chlorophenethyl)thieno[2,3-d]pyrimidin-4-amine] |  | 77.5 ± 16.3 | > 50 | Non-toxic | 15 | 6.15 | > 10 | > 50 | 38.1 | 37 | > 50 |  | IC50 ([1]; HCC1395, stimulation with CHIR99021 (GSK3β inhibitor), read-out: HCC1395 TopFlash IC50): 3.07 ± 2.39 µM |
